The target in the assay is SOS1:KRAS (G12C) interaction (Homo sapiens (Human), UniProt Q07889). The assay can be described thus: SOS1 KRas(G12C) FRET Assay. The settings on record: 0.5 nM His10-SOS1 (res. 564-1049), 2.5 nM GST-KRAS G12C (res. 1-169), 2 hrs at RT. In kind it is binding. On the procedure:
Inhibition of the SOS 1:KRAS interaction was measured using purified GST-tagged KRAS (res. 1-169, G12C, purified based on Hillig, et al., Proc Natl Acad Sci USA (2019); 116(7):2551-2560) and recombinant His10-SOS1 (res. 564-1049; purified based on Hillig, et al.). The final assay was performed at 20 uL with 0.5 nM SOS1 protein and 2.5 nM KRAS protein in a buffer of PBS, 0.1% BSA, 5 mM MgCh, 0.0025% Igepal, 100 mM KF, 5 mM DTT in a white 384 square well OptiPlate (PerkinElmer, Cat. 6007290). A 2x KRAS working solution was prepared in an assay buffer containing 5 nM GST-KRAS G12C and 2 nM anti-GST-Eu(K) (Cisbio, Cat. 61GSTKLA) and pre-incubated for 15 minutes at 25° C. […] The final DMSO concentration is 0.5%. Plates were incubated at RT for 2 hrs before the FRET signal was measured using Envision at emission 665 nm and 615 nm. FRET signal was converted to percentage of protein-protein interaction using the following equation:
• C: signal with compound treatment • P: signal for positive control (DMSO) • N: signal for negative control (no SOS1 added)
IC50 and Hill coefficients were obtained using Graph Pad Prism (Graph Pad software, Inc, USA) with non-linear regression analysis.

SOS1:KRAS (G12C) interaction, sequence (Q07889 564-1049, stated change not applied): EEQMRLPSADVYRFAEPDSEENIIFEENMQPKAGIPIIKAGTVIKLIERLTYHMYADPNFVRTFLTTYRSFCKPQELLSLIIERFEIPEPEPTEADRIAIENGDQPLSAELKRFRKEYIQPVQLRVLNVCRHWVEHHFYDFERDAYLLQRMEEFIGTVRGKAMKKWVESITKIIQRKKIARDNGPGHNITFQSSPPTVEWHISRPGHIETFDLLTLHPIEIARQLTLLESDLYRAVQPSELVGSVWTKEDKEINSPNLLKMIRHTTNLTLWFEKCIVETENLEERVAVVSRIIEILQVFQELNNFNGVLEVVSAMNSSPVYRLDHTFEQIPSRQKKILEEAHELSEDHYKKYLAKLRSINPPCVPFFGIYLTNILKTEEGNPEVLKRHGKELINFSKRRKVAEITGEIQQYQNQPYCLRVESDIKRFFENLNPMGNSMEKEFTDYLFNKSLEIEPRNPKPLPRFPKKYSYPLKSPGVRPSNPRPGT

`C[C@@H](NC(=O)c1cn(C23CC(C2)C3)c(=O)cc1N[C@H]1CCN(C)C[C@H]1F)c1cccc(C(F)F)c1F` (single isomer, unassigned) [Example 203]: the IC50 came to 4.6 nM.

`C[C@@H](NC(=O)c1cn(C23CC(C2)C3)c(=O)cc1N[C@@H]1CCN(C)C[C@@H]1F)c1cccc(C(F)F)c1F` (single isomer, unassigned) [Example 204] gave an IC50 of 3.61 nM.

With `C[C@@H](NC(=O)c1cn(C2CCC2)c(=O)cc1N[C@H]1[C@@H]2CC[C@H]1CN(C)C2)c1cccc(C(F)F)c1F` (single isomer, unassigned) [Example 214], the concentration for half-maximal inhibition (IC50) is 10.6 nM. This IC50 lies about 2.9-fold higher than the previous one.

`C[C@@H](NC(=O)c1cn(C2CCC2)c(=O)cc1N[C@@H]1[C@@H]2CC[C@H]1CN(C)C2)c1cccc(C(F)F)c1F` (single isomer, unassigned) [Example 215] displayed an IC50 of 68.2 nM. Compared with the last molecule, the IC50 is about 6.4-fold higher.

Turning to `C[C@@H](NC(=O)c1cn([C@@H]2CC23CC3)c(=O)cc1N[C@H]1[C@@H]2CN(C)C[C@@H]21)c1cccc(C(F)(F)F)c1F` (single isomer, unassigned) [Example 218], the IC50 came out at 15.8 nM.

`C[C@@H](NC(=O)c1cn([C@H]2CC23CC3)c(=O)cc1N[C@H]1[C@@H]2CN(C)C[C@@H]21)c1cccc(C(F)(F)F)c1F` (single isomer, unassigned) [Example 219] registered an IC50 of 26.9 nM.

For `C[C@@H](NC(=O)c1cn([C@@]2(C(F)(F)F)CCOC2)c(=O)cc1N[C@H]1[C@@H]2CN(C)C[C@@H]21)c1cccc(C(F)F)c1F` (single isomer, unassigned) [Example 234], the IC50 worked out at 9.2 nM.

Consider `C[C@@H](NC(=O)c1cn([C@]2(C(F)(F)F)CCOC2)c(=O)cc1N[C@H]1[C@@H]2CN(C)C[C@@H]21)c1cccc(C(F)F)c1F` (single isomer, unassigned) [Example 235], for which the IC50 came out at 142 nM.

In the case of `C[C@@H](NC(=O)c1cn(C2(C(F)F)CC2)c(=O)cc1N[C@H]1C[C@H]2C[C@@H]1CN2C)c1cccc(C(F)F)c1F` (single isomer, unassigned) [Example 236], the half-maximal inhibitory concentration (IC50) amounted to 45.3 nM.

As for `C[C@@H](NC(=O)c1cn(C2(C(F)F)CC2)c(=O)cc1N[C@H]1C[C@@H]2C[C@H]1CN2C)c1cccc(C(F)F)c1F` (single isomer, unassigned) [Example 237], the IC50 is 19.4 nM.

On to `C[C@@H](NC(=O)c1cn(C2(C(F)F)CC2)c(=O)cc1N[C@@H]1C[C@@H]2C[C@H]1CN2C)c1cccc(C(F)F)c1F` (single isomer, unassigned) [Example 238], for which inhibition was half-maximal at 29.3 nM (IC50).

The molecule `C[C@@H](NC(=O)c1cn(C2(C(F)F)CC2)c(=O)cc1N[C@@H]1C[C@H]2C[C@@H]1CN2C)c1cccc(C(F)F)c1F` (single isomer, unassigned) [Example 239] showed a 50% inhibitory concentration (IC50) of 21.5 nM.

For the molecule `C[C@@H](NC(=O)c1cn(C2(C(F)F)CC2)c(=O)cc1N[C@H]1[C@@H]2CC[C@H]1CN(C)C2)c1cccc(C(F)F)c1F` (single isomer, unassigned) [Example 245], the IC50 turned out to be 44.2 nM.

`C[C@@H](NC(=O)c1cn(C2(C(F)F)CC2)c(=O)cc1N[C@@H]1[C@@H]2CC[C@H]1CN(C)C2)c1cccc(C(F)F)c1F` (single isomer, unassigned) [Example 246] returned an IC50 of 16.1 nM.

Molecule `C[C@@H](NC(=O)c1cn([C@H]2C[C@@H](C3CC3)C2)c(=O)cc1N[C@H]1[C@@H]2CN(C)C[C@@H]21)c1cccc(C(F)F)c1F` (single isomer, unassigned) [Example 248] displayed an IC50 of 24.1 nM.

The molecule `C[C@@H](NC(=O)c1cn([C@H]2C[C@H](C3CC3)C2)c(=O)cc1N[C@H]1[C@@H]2CN(C)C[C@@H]21)c1cccc(C(F)F)c1F` (single isomer, unassigned) [Example 249] had an IC50 of 16.5 nM. This IC50 and that of the molecule before are within 1.5-fold of each other.

`C[C@@H](NC(=O)c1cn(C2(C(F)F)CC2)c(=O)cc1N[C@@H]1[C@@H]2C[C@H]1CN(C)C2)c1cccc(C(F)F)c1F` (single isomer, unassigned) [Example 250] displayed an IC50 of 21.7 nM.

As for `C[C@@H](NC(=O)c1cn(C2(C(F)F)CC2)c(=O)cc1N[C@H]1[C@@H]2C[C@H]1CN(C)C2)c1cccc(C(F)F)c1F` (single isomer, unassigned) [Example 251], the IC50 was 34.1 nM.

The molecule `C[C@@H](NC(=O)c1cn(C2(C(F)F)CCC2)c(=O)cc1N[C@@H]1[C@@H]2C[C@H]1CN(C)C2)c1cccc(C(F)F)c1F` (single isomer, unassigned) [Example 252] showed an IC50 of 17 nM. This IC50 is about 2-fold lower than that of the molecule before.

On to `C[C@@H](NC(=O)c1cn(C2(C(F)F)CCC2)c(=O)cc1N[C@H]1[C@@H]2C[C@H]1CN(C)C2)c1cccc(C(F)F)c1F` (single isomer, unassigned) [Example 253], for which half-maximal inhibition (IC50) was put at 43.1 nM.

In turn, `C[C@@H](NC(=O)c1cn([C@@H]2CC23CC3)c(=O)cc1N[C@H]1[C@@H]2CN(C)C[C@@H]21)c1cccc(C(C)(F)F)c1F` (single isomer, unassigned) [Example 254] gave an IC50 of 13 nM.

`C[C@@H](NC(=O)c1cn([C@H]2CC23CC3)c(=O)cc1N[C@H]1[C@@H]2CN(C)C[C@@H]21)c1cccc(C(C)(F)F)c1F` (single isomer, unassigned) [Example 255] registered an IC50 of 27 nM.

`C[C@@H](NC(=O)c1cn([C@@H]2CCC2(F)F)c(=O)cc1N[C@H]1[C@@H]2CN(C)C[C@@H]21)c1cccc(C(F)(F)F)c1` (single isomer, unassigned) [Example 256] returned an IC50 of 13.9 nM.

Molecule `C[C@@H](NC(=O)c1cn([C@H]2CCC2(F)F)c(=O)cc1N[C@H]1[C@@H]2CN(C)C[C@@H]21)c1cccc(C(F)(F)F)c1` (single isomer, unassigned) [Example 257] registered an IC50 of 85.8 nM.

In turn, `C[C@@H](NC(=O)c1cn(C2CC(F)(F)C2)c(=O)cc1N[C@H]1[C@@H]2CC[C@H]1CN(C)C2)c1cccc(C(F)F)c1F` (single isomer, unassigned) [Example 258] yielded an IC50 of 76.3 nM. This IC50 and that of the molecule before are within 1.5-fold of each other.

For `C[C@@H](NC(=O)c1cn(C2CC(F)(F)C2)c(=O)cc1N[C@@H]1[C@@H]2CC[C@H]1CN(C)C2)c1cccc(C(F)F)c1F` (single isomer, unassigned) [Example 259], 10.4 nM corresponded to half-maximal inhibition (IC50).

`C[C@@H](NC(=O)c1cn(C2(CF)CC2)c(=O)cc1N[C@H]1[C@@H]2CC[C@H]1CN(C)C2)c1cccc(C(F)F)c1F` (single isomer, unassigned) [Example 260] displayed an IC50 of 12.4 nM.

As for `C[C@@H](NC(=O)c1cn(C2(CF)CC2)c(=O)cc1N[C@@H]1[C@@H]2CC[C@H]1CN(C)C2)c1cccc(C(F)F)c1F` (single isomer, unassigned) [Example 261], the IC50 is 41.4 nM.

As for `CC(=O)N1CC[C@](C)(n2cc(C(=O)N[C@H](C)c3cccc(C(F)F)c3F)c(NC3CCN(C)CC3)cc2=O)C1` (single isomer, unassigned) [Example 265], the IC50 is 27.8 nM.

Consider `CC(=O)N1CC[C@@](C)(n2cc(C(=O)N[C@H](C)c3cccc(C(F)F)c3F)c(NC3CCN(C)CC3)cc2=O)C1` (single isomer, unassigned) [Example 266], for which inhibition was half-maximal at 1.4 nM (IC50).

For `C[C@@H](NC(=O)c1cn([C@H]2C[C@@H]2C)c(=O)cc1N[C@H]1[C@@H]2CN(C)C[C@@H]21)c1cccc(C(F)F)c1F` (single isomer, unassigned) [Example 271], the IC50 is 36.9 nM.

Molecule `C[C@@H]1C[C@H]1n1cc(C(=O)N[C@H](C)c2cccc(C(F)F)c2F)c(N[C@H]2[C@@H]3CN(C)C[C@@H]32)cc1=O` (single isomer, unassigned) [Example 272] displayed an IC50 of 29.1 nM. This IC50 and that of the molecule before are within 1.5-fold of each other.

For `C[C@@H]1C[C@@H]1n1cc(C(=O)N[C@H](C)c2cccc(C(F)F)c2F)c(N[C@H]2[C@@H]3CN(C)C[C@@H]32)cc1=O` (single isomer, unassigned) [Example 273], the half-maximal inhibitory concentration (IC50) came to 15.7 nM.

Molecule `C[C@@H](NC(=O)c1cn([C@@H]2C[C@@H]2C)c(=O)cc1N[C@H]1[C@@H]2CN(C)C[C@@H]21)c1cccc(C(F)F)c1F` (single isomer, unassigned) [Example 274] came in with an IC50 of 10.6 nM.

`CN1C[C@@H]2[C@H](C1)[C@H]2Nc1cc(=O)n(C2(C(F)F)CC2)cc1C(=O)N[C@@H](c1cccc(C(F)F)c1F)C(F)(F)F` (single isomer, unassigned) [Example 275] returned an IC50 of 361 nM.

In turn, `CN1C[C@@H]2[C@H](C1)[C@H]2Nc1cc(=O)n(C2(C(F)F)CC2)cc1C(=O)N[C@H](c1cccc(C(F)F)c1F)C(F)(F)F` (single isomer, unassigned) [Example 276] returned an IC50 greater than 10000 nM.

`C[C@@H](NC(=O)c1cn(C2(C(F)F)CC2)c(=O)cc1N[C@H]1CCNC2(CC2)C1)c1cccc(C(F)F)c1F` (single isomer, unassigned) [Example 277]: it took 9.46 nM to reach half-maximal inhibition (IC50).

`C[C@@H](NC(=O)c1cn(C2(C(F)F)CC2)c(=O)cc1N[C@@H]1CCNC2(CC2)C1)c1cccc(C(F)F)c1F` (single isomer, unassigned) [Example 278]: it took 24.1 nM to reach half-maximal inhibition (IC50).

For `C[C@@H](NC(=O)c1cn(C2(C(F)F)CC2)c(=O)cc1N[C@H]1[C@@H]2CC[C@H]1CNC2)c1cccc(C(F)F)c1F` (single isomer, unassigned) [Example 280], the IC50 came to 15.8 nM.

Consider `C[C@@H](NC(=O)c1cn(C2(C(F)F)CC2)c(=O)cc1N[C@@H]1[C@@H]2CC[C@H]1CNC2)c1cccc(C(F)F)c1F` (single isomer, unassigned) [Example 281], for which the IC50 is 18.4 nM.

The IC50 is the midpoint of a concentration-inhibition curve. Read a low IC50 as greater potency.

These data come from patent publication US20230348424A1, “HETEROCYCLIC COMPOUNDS AND METHODS OF USE” (Schrödinger, Inc., priority 2022, published 2023).
